Source: the kinase profiling compilation of Christmann-Franck et al. (2016)

Assays:
Test in all cases: KINOMEscan competition binding
[1] = target: ABL1 (human), P00519 [F317I]
[2] = target: ABL1 (human), P00519 [T315I]
[3] = target: BMX (human) (UniProt P51813)
[4] = target: BRAF (human) (UniProt P15056)
[5] = target: BRAF (human), P15056 [V600E]
[6] = target: CAMK1G (human) (UniProt Q96NX5)
[7] = target: CAMKK1 (human) (UniProt Q8N5S9)
[8] = target: CLK1 (human) (UniProt P49759)
[9] = target: DDR1 (human) (UniProt Q08345)
[10] = target: DYRK1A (human) (UniProt Q13627)
[11] = target: FGFR3 (human) (UniProt P22607)
[12] = target: FLT3 (human), P36888 [D835H]
[13] = target: FLT3 (human), P36888 [N841I]
[14] = target: MAP3K2 (human) (UniProt Q9Y2U5)
Sequence of MAP3K2 (human) (Q9Y2U5 whole entry, looked up): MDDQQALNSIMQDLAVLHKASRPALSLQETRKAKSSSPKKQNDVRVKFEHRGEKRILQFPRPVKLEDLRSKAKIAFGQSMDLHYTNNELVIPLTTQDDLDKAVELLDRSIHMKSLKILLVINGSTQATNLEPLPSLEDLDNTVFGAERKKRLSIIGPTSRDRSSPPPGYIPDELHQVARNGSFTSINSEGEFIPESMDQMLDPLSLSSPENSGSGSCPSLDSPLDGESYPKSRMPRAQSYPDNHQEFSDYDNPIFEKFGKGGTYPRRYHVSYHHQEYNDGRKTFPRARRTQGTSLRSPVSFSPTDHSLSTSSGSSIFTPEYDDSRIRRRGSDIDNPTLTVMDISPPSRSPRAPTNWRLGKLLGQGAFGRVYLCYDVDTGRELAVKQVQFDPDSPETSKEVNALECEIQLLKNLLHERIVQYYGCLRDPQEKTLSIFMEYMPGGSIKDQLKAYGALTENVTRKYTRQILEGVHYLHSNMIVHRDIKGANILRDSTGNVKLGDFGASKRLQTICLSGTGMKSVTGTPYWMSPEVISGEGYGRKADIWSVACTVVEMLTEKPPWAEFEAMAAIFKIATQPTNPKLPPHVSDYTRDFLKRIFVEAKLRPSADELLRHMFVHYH

[15] = target: MAP3K3 (human) (UniProt Q99759)
[16] = target: MAP4K1 (human) (UniProt Q92918)
[17] = target: MAPK9 (human) (UniProt P45984)
Sequence of MAPK9 (human) (P45984 whole entry, looked up): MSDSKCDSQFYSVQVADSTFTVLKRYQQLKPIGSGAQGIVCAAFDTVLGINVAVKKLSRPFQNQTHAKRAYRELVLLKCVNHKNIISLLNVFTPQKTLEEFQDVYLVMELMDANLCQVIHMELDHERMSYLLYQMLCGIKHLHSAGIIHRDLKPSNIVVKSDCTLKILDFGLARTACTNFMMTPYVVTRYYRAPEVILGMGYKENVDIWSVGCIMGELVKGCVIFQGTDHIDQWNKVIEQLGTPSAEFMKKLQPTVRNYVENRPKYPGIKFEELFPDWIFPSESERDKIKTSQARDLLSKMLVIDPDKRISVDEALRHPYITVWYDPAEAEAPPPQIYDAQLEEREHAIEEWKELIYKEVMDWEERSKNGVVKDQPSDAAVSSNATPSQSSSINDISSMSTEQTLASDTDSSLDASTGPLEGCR

[18] = target: MET (human), P08581 [M1250T]
[19] = target: MYLK4 (human) (UniProt Q86YV6)
Sequence of MYLK4 (human) (Q86YV6 whole entry, looked up): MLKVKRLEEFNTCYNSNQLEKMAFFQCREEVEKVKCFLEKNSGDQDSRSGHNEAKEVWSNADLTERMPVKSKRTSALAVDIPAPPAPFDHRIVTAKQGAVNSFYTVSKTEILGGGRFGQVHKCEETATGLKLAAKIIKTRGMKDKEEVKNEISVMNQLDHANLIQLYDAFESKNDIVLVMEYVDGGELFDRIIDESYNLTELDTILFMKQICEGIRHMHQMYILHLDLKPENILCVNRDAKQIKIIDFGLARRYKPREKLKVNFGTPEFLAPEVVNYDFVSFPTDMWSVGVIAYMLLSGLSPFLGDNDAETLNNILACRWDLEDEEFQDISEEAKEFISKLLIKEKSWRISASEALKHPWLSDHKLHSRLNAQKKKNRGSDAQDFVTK

[20] = target: PRKCD (human) (UniProt Q05655)
[21] = target: RPS6KA4 KD1 (human) (UniProt O75676)
[22] = target: STK35 (human) (UniProt Q8TDR2)
[23] = target: TNK1 (human) (UniProt Q13470)
Sequence of TNK1 (human) (Q13470 whole entry, looked up): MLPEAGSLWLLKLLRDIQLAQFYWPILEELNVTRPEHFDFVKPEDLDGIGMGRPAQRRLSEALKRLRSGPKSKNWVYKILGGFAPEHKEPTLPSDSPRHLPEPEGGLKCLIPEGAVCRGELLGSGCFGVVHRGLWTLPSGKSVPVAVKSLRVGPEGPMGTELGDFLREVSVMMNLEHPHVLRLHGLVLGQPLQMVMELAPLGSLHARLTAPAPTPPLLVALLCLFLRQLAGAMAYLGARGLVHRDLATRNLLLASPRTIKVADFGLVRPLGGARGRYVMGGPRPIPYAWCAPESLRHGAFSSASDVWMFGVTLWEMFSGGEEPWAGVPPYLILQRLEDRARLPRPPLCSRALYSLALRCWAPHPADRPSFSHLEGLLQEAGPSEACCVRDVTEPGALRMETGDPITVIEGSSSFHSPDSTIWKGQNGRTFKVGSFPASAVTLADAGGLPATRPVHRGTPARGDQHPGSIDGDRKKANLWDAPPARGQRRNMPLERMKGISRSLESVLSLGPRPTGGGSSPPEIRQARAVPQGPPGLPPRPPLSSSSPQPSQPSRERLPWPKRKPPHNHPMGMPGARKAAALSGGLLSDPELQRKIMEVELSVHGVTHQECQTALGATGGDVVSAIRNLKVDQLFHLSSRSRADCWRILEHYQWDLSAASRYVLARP

[24] = target: TTK (human) (UniProt P33981)
[25] = target: TYK2 JH2 pseudokinase (human) (UniProt P29597)
Sequence of TYK2 JH2 pseudokinase (human) (P29597 whole entry, looked up): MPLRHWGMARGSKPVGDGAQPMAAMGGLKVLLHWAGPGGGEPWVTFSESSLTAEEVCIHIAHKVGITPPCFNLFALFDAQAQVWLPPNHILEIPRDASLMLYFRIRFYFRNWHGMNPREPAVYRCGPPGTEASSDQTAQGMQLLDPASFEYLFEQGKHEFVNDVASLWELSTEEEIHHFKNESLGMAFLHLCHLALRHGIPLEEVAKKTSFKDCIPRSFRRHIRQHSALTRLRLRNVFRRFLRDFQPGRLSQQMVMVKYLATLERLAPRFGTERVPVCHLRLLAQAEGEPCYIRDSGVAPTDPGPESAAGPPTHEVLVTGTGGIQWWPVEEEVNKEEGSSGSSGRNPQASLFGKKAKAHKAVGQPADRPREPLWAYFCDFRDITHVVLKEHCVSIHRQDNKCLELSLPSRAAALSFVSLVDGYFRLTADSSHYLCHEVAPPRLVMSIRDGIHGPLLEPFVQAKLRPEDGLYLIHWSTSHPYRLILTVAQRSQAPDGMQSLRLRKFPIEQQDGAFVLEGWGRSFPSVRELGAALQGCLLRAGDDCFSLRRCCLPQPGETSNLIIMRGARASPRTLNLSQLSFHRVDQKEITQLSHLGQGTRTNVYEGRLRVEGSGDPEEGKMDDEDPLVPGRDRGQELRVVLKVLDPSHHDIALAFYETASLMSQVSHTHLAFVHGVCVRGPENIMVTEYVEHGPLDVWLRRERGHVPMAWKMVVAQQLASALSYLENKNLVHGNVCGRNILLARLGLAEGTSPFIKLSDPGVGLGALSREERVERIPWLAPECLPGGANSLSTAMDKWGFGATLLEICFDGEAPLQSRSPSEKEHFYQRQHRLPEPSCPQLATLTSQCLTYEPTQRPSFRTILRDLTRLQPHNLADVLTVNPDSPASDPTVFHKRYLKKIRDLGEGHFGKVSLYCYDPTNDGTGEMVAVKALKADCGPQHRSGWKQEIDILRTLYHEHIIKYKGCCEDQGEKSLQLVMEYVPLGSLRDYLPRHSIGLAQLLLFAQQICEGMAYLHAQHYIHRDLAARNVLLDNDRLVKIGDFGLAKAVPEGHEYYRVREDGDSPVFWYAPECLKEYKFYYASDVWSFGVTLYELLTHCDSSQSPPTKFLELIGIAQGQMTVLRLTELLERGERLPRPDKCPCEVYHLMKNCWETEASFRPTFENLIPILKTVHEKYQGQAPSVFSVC

Sequence of CLK1 (human) (P49759 whole entry, looked up): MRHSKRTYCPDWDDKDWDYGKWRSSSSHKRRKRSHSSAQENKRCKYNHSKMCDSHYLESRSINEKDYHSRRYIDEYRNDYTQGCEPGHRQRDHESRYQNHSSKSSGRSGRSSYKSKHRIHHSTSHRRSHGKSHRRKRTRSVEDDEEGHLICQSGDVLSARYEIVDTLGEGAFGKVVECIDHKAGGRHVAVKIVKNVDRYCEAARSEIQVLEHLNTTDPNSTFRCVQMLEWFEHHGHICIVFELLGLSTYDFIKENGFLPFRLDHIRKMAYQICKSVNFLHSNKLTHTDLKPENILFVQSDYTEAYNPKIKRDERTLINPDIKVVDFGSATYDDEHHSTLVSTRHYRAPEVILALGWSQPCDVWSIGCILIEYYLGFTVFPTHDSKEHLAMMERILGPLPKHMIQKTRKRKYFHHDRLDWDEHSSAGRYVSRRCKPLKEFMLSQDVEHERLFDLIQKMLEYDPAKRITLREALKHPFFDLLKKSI
Sequence of BRAF (human), P15056 [V600E] (P15056 whole entry V600E, looked up): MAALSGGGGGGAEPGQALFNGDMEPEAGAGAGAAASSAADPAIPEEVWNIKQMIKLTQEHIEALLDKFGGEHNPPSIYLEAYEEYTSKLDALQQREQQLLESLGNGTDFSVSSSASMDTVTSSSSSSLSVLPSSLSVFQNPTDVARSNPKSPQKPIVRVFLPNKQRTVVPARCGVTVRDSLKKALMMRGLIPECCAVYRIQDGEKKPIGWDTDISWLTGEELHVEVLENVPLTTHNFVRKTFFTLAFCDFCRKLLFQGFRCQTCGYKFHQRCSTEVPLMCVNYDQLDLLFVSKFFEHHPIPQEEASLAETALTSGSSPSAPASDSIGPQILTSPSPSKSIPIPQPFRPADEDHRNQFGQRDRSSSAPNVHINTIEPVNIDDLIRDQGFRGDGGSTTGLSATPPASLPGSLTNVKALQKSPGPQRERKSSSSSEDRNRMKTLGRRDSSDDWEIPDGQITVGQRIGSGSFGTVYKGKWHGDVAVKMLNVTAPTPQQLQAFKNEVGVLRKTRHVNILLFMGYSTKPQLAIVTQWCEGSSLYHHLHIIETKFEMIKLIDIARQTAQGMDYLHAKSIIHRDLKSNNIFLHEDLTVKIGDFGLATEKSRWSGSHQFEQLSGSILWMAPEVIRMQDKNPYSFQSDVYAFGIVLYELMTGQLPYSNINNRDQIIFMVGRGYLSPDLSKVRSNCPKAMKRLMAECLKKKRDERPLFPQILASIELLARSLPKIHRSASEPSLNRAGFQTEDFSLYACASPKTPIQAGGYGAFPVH
Sequence of CAMK1G (human) (Q96NX5 whole entry, looked up): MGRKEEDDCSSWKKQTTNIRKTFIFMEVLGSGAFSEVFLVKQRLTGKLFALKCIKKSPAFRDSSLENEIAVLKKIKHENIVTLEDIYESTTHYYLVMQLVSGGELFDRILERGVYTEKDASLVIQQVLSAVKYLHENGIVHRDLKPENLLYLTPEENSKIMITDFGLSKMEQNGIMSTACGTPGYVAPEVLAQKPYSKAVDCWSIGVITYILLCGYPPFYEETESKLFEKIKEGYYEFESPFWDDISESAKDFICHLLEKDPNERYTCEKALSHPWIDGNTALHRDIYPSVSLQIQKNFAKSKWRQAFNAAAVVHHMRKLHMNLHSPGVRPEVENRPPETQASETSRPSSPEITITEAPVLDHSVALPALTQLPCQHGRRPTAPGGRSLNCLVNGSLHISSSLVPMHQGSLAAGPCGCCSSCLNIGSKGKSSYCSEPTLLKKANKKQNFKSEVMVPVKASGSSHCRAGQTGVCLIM

COc1cc2ncnc(Oc3cccc(NC(=O)Nc4cc(C(C)(C)C(F)(F)F)on4)c3)c2cc1OC
Kd [1]: 2.5 nM | Kd [2]: 2.6 nM | Kd [3]: 820 nM | Kd [4]: 36 nM | Kd [5]: 14 nM | Kd [6]: 30 µM | Kd [7]: 16 µM | Kd [8]: 10 µM | Kd [9]: 0.6 nM | Kd [10]: 35 µM | Kd [11]: 3.3 µM | Kd [12]: 67 nM | Kd [13]: 20 nM | Kd [14]: 13 µM | Kd [15]: 11 µM | Kd [16]: 220 nM | Kd [17]: 4.1 nM | Kd [18]: 2100 nM | Kd [19]: 12 µM | Kd [20]: 1200 nM | Kd [21]: 1900 nM | Kd [22]: 470 nM | Kd [23]: 150 nM | Kd [24]: 1700 nM | Kd [25]: 16 µM
